# Assay results from article PMC3522636, “4F Decreases IRF5 Expression and Activation in Hearts of Tight Skin Mice” (PLoS ONE, 2012).
# Entries after “also recorded” stand apart in the source; their conditions may differ.
# Columns and labels:
# [1] = target: biotin-labeled 4F (biotin-labeled …-NH2); experiment: pull-down; B-4F added to precleared endothelial cell cytosolic fractions spiked with recombinant IRF5, 3 h at 4°C; SA agarose beads overnight at 4°C; immunoblot for IRF5
# [2] = tested on: Human umbilical vein endothelial cells; experiment: Cellular uptake of B-4F in endothelial cells; assay type: cell-based; settings: vs unlabeled 4F, confocal; for increase of fluorescence intensity in EC: 4 hours, fluorescein-streptavidin
# Experimental: Human umbilical vein endothelial cells (EC; Lonza, Walkersville, MD) were incubated in EGM complete media containing 4F or B-4F (10 and 50 µg/ml) for 4 hours. The EC cultures were washed with PBS, fixed in PBS containing 1% paraformaldehyde, and permeabilized with PBS containing 0.5% Triton-X. The permeabilized sections were incubated with fluorescein-conjugated streptavidin (1 µg/ml) for 30 minutes followed by 3 PBS washes. The fixed and fluorescently labeled slides were mounted in aqueous mounting media and sections inspected and analyzed by confocal microscopy.
# [3] = target: T1, IRF5 (Homo sapiens, UniProt Q13568); experiment: B-4F pulldown assay from EC cytosolic fractions spiked with recombinant IRF5; assay type: binding; settings: immunoblot
# T1 construct: purchased GenScript USA Inc
# T1 sequence (Q13568 1-498): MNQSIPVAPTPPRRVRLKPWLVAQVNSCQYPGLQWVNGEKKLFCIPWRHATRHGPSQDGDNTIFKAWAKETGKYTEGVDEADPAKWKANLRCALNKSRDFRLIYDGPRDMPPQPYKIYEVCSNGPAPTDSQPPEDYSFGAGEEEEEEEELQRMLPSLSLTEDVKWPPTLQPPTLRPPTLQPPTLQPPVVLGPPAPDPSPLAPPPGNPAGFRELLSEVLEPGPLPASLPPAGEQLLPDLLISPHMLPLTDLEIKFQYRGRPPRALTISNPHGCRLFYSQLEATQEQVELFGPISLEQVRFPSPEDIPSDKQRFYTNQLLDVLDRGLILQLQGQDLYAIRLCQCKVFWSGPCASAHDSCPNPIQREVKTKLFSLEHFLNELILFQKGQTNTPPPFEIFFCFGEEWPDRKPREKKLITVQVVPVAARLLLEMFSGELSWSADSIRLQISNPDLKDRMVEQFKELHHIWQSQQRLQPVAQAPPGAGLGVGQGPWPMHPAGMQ
# Experimental: B-4F Pulldown Assays: To determine whether 4F interacts with IRF5 in the presence of cystosol proteins, we performed 4F pulldown assays on EC cytosolic fractions spiked with recombinant IRF5. Briefly, cytosolic EC fractions were precleared with SA agarose beads (Cat#15942-050, Invitrogen) for 30 minutes at 4°C. IRF5 interactions were enhanced by adding recombinant IRF5 (2% wt/vol, Genscript USA Inc.) to the endothelial cytosolic fractions. 4F and B-4F were added to the cytosolic fractions and incubated for 3 hours at 4°C. SA agarose beads were added and the samples mixed end-over-end overnight at 4°C. The following day the SA agarose beads were isolated by centrifugation. The proteins associated with B-4F were released from the beads with Laemmli buffer and separated by SDS-PAGE (4–15%) as above. IRF5 levels in the pulldown samples were determined by autoradiography of immunoblots as above.
Substance,fold IRF5 in the B-4F precipitate over control lane 1 [1] [fold],increase of fluorescence intensity in EC ([2]; B-4F 10 µg/ml),"increase of fluorescence intensity in EC ([2]; B-4F 50 µg/ml, p≤0.05) [fold]","uptake into EC (in words) ([2]; B-4F 10 and 50 µg/ml, 4 hours (method), 3 hours (Figure 6))","association with IRF5 in presence of EC cytosolic proteins (in words) ([3]; 3 hours at 4°C, SA agarose beads overnight at 4°C)","IRF5 bound to the B-4F precipitate relative to control ([3]; EC lysates with recombinant IRF5 (10 µg/mL), SA-agarose pulldown, lane 2 vs control lane 1) [fold]"
recombinant IRF5 (from UniProt Q13568 1-498) (natural protein),2.5,,,,,
"biotin-labeled DWFKAFYDKVAEKFKEAF-NH2 [B-4F, biotin-labeled 4F, synthesized with one more cycle with FMOC-Lys(biotinyl-ε-aminocaproyl)-OH]",,approximately 30%,3.6,greater fluorescence in EC cultures incubated with 10 and 50 µg/ml of B-4F than in EC cultures incubated with equal concentrations of unlabeled 4F; also recorded: B-4F content is increased in ECs incubated with 10 and 50 µg/ml,associates with IRF5 even in the presence of EC cytosolic proteins,2.5
